Data as given in ChEMBL document CHEMBL6127154, “Pursuing Polypharmacology: Benzothiopyranoindoles as G-Quadruplex Stabilizers and Topoisomerase I Inhibitors for Effective Anticancer Strategies” (ACS Med Chem Lett, 2024).
Activity calls are given as the source filed them. The calls are words filed in the database; no cut-off is given here.

Tests used:
MDA-MB-231 = assay: Antiproliferative activity against human MDA-MB-231 cells assessed as growth inhibition incubated for 48 hrs by SRB assay; format: functional
dsDNA [1] = assay: Binding affinity to human duplex ds26 DNA assessed as dissociation constant by MST analysis; format: nucleic-acid assay
U-251 = assay: Antiproliferative activity against human U-251 cells assessed as growth inhibition incubated for 48 hrs by SRB assay; format: functional
Quadruplex DNA [2] = assay: Thermal stabilization of FAM labeled human Tel21T G4 quadruplex DNA assessed as change in melting temperature (deltaT1/2) in presence of unlabeled duplex competitor (ds26) by FRET assay; format: nucleic-acid assay
Quadruplex DNA [3] = assay: Thermal stabilization of human Tel26-hy G4 quadruplex DNA assessed as change in melting temperature (deltaT1/2) incubated for 10 mins by circular dichroism spectroscopic analysis (reference value: 55.4 +/- 0.1 degreeC); format: nucleic-acid assay
SK-MEL-2 = assay: Antiproliferative activity against human SK-MEL-2 cells assessed as growth inhibition incubated for 48 hrs by SRB assay; format: functional
HCT-116 [4] = assay: Induction of DNA damage in human HCT-116 cells assessed as increase in gammaH2AX level incubated for 24 hrs by immunofluorescence staining based analysis; format: functional, cell-based
Quadruplex DNA [5] = assay: Thermal stabilization of human c-Kit2 G4 quadruplex DNA assessed as change in melting temperature (deltaT1/2) incubated for 10 mins by circular dichroism spectroscopic analysis (reference value: 62.4 +/-0.1 degreeC); format: nucleic-acid assay
SW-620 = assay: Antiproliferative activity against human SW620 cells assessed as growth inhibition incubated for 48 hrs by SRB assay; format: functional
UACC-62 = assay: Antiproliferative activity against human UACC-62 cells assessed as growth inhibition incubated for 48 hrs by SRB assay; format: functional
dsDNA [6] = assay: Binding affinity to human […] Tel26-hy DNA assessed as dissociation constant by MST analysis; format: nucleic-acid assay
EKVX = assay: Antiproliferative activity against human EKVX cells assessed as growth inhibition incubated for 48 hrs by SRB assay; format: functional
MOLT-4 = assay: Antiproliferative activity against human MOLT-4 cells assessed as growth inhibition incubated for 48 hrs by SRB assay; format: functional
SF-539 = assay: Antiproliferative activity against human SF-539 cells assessed as growth inhibition incubated for 48 hrs by SRB assay; format: functional
OVCAR-4 = assay: Antiproliferative activity against human OVCAR-4 cells assessed as growth inhibition incubated for 48 hrs by SRB assay; format: functional
Quadruplex DNA [7] = assay: Thermal stabilization of FAM labeled human Tel21T G4 quadruplex DNA assessed as change in melting temperature (deltaT1/2) in presence of 50 uM unlabeled duplex competitor (ds26) by FRET assay; format: nucleic-acid assay
Quadruplex DNA [8] = assay: Binding affinity to human parallel c-Kit2 G4 quadruplex DNA assessed as dissociation constant by MST analysis; format: nucleic-acid assay
SF-268 = assay: Antiproliferative activity against human SF-268 cells assessed as growth inhibition incubated for 48 hrs by SRB assay; format: functional
KM12 = assay: Antiproliferative activity against human KM12 cells assessed as growth inhibition incubated for 48 hrs by SRB assay; format: functional
HOP-92 = assay: Antiproliferative activity against human HOP-92 cells assessed as growth inhibition incubated for 48 hrs by SRB assay; format: functional
NCI-H226 = assay: Antiproliferative activity against human NCI-H226 cells assessed as growth inhibition incubated for 48 hrs by SRB assay; format: functional
Quadruplex DNA [9] = assay: Thermal stabilization of FAM labeled human Tel21T G4 quadruplex DNA assessed as change in melting temperature (deltaT1/2) in presence of 15 uM unlabeled duplex competitor (ds26) by FRET assay; format: nucleic-acid assay
UACC-257 = assay: Antiproliferative activity against human UACC-257 cells assessed as growth inhibition incubated for 48 hrs by SRB assay; format: functional
Quadruplex DNA [10] = assay: Binding affinity to human hybrid Tel23 G4 quadruplex DNA assessed as dissociation constant by MST analysis; format: nucleic-acid assay
SK-MEL-5 = assay: Antiproliferative activity against human SK-MEL-5 cells assessed as growth inhibition incubated for 48 hrs by SRB assay; format: functional
RPMI-8226 = assay: Antiproliferative activity against human RPMI-8226 cells assessed as growth inhibition incubated for 48 hrs by SRB assay; format: functional
HT-29 = assay: Antiproliferative activity against human HT-29 cells assessed as growth inhibition incubated for 48 hrs by SRB assay; format: functional
Quadruplex DNA [11] = assay: Binding affinity to human hybrid c-Myc G4 quadruplex DNA assessed as dissociation constant by MST analysis; format: nucleic-acid assay
NCI-H522 = assay: Antiproliferative activity against human NCI-H522 cells assessed as growth inhibition incubated for 48 hrs by SRB assay; format: functional
A549 = assay: Antiproliferative activity against human A549 cells assessed as growth inhibition incubated for 48 hrs by SRB assay; format: functional
HCT-116 [12] = assay: Induction of DNA damage in human HCT-116 cells assessed as increase in 53BP1 foci positive cells incubated for 24 hrs by immunofluorescence staining based analysis; format: functional, cell-based
SNB-19 = assay: Antiproliferative activity against human SNB-19 cells assessed as growth inhibition incubated for 48 hrs by SRB assay; format: functional
UO-31 = assay: Antiproliferative activity against human UO-31 cells assessed as growth inhibition incubated for 48 hrs by SRB assay; format: functional
OVCAR-8 = assay: Antiproliferative activity against human OVCAR-8 cells assessed as growth inhibition incubated for 48 hrs by SRB assay; format: functional

Row | ΔTm (Quadruplex DNA [3]) [°C] | ΔTm (Quadruplex DNA [5]) [°C] | SMILES | GI (MDA-MB-231) [µM] | GI (U-251) [µM] | GI (SK-MEL-2) [µM] | Activity (HCT-116 [4]) | GI (SW-620) [µM] | GI (UACC-62) [µM] | GI (EKVX) [µM] | GI (MOLT-4) [µM] | GI (SF-539) [µM] | GI (OVCAR-4) [µM] | GI (SF-268) [µM] | GI (KM12) [µM] | GI (HOP-92) [µM] | GI (NCI-H226) [µM] | GI (UACC-257) [µM] | GI (SK-MEL-5) [µM] | GI (RPMI-8226) [µM] | GI (HT-29) [µM] | further results
1 | 10.4 | > 20 | CCN(CC)CCn1c2ccc(OC)cc2c2sc3cc(OC)ccc3c(=O)c21 | 1.54 | 1.55 | 2.1 | Active | 0.825 | 1.8 | 1.6 | 0.383 | 1.66 | 1.84 | 1.87 | 2 | 1.13 | 2.46 | 1.92 | 1.74 | 1.47 | 1.52 | Kd (dsDNA [1]): 1300 nM; ΔTm (Quadruplex DNA [2]): 12.6 °C; Kd (dsDNA [6]): 23000 nM; ΔTm (Quadruplex DNA [7]): 1.6 °C; Kd (Quadruplex DNA [8]): 300 nM; ΔTm (Quadruplex DNA [9]): 1.9 °C; Kd (Quadruplex DNA [10]): 9000 nM; Kd (Quadruplex DNA [11]): 2100 nM; GI (NCI-H522): 1.71 µM; GI (A549): 1.59 µM; Activity (HCT-116 [12]): Active; GI (SNB-19): 2.43 µM; GI (UO-31): 1.35 µM; GI (OVCAR-8): 1.93 µM
2 | 7.5 | > 20 | CCN(CC)CCn1c2ccc(O)cc2c2sc3cc(OC)ccc3c(=O)c21 | 1.61 | 1.58 | 9.15 | Active | 0.675 | 1.89 | 1.67 | 0.389 | 1.76 | 1.81 | 7.34 | 1.84 | 2.58 | 10.4 | 2.1 | 1.74 | 1.95 | 1.75 | GI (A549): 1.63 µM; Activity (HCT-116 [12]): Active; GI (SNB-19): 1.51 µM; GI (UO-31): 1.9 µM; GI (OVCAR-8): 2.1 µM
